Measured values from patent US10787472B2, “Prodrugs of pyridone amides useful as modulators of sodium channels” (VERTEX PHARMACEUTICALS INCORPORATED, priority 2013, dated 2020).

Experiments:
[1] = Chemical and physical stability of crystalline Form B (XRPD, HPLC impurity profile, appearance); assay type: physicochemical
Excerpt: Chemically and physically stable means no changes were observed on the X-ray powder diffraction and HPLC impurity profiles (e.g., less than 0.2% variance) and there were no observed changes in physical appearance of the samples.

[2] = Rat oral pharmacokinetic study; assay type: in vivo, Sprague Dawley rats; conditions: for Cmax: male rat, analyte 9a in plasma, 5% TPGS/5% PVP-K30/50 mM Citrate pH5, mean ± SD, N=3
Experimental: (§1) Before extraction, plasma samples were diluted using blank plasma at an appropriate dilution factor, as necessary, depending on the dose level. […] After centrifugation, the supernatant extract (10 μL) was injected onto the LC/MS/MS system. The HPLC system included a Phenomenex Synergy Kinetix C8 column, 2.6 micron, 2.0 mm diameter×75 mm long eluted with a gradient mobile phase consisting of 0.1% formic acid in water or in acetonitrile.
(§2) The analytes were detected by MS/MS with Electrospray Ionization (ESI) in the mode of multiple reaction monitoring (MRM). […] The intra-day and inter-day assay accuracy was within 20% of the nominal values. The intra- and inter-day assay variability was ≤20%.
(§3) Key pharmacokinetic parameters such as AUCall, AUCextra, Cmax, tmax, Cl, Vss and t1/2 were determined.
(§4) Descriptive statistical data of pharmacokinetic parameters were calculated, including the mean, standard deviation (SD), using Watson LIMS version 7.4 SP3 or Microsoft Excel 2000.
Groups of male and female Sprague Dawley rats (n=3 per dose group) were administered single nominal oral doses of 10, 100, 400, 640, 1000 mg/kg (for males) and 30, 100, 300, 640, 1000 mg/kg (for females) of compound 9 by gavage. Compound 9 was formulated in either 30% PEG400 and 10% TPGS in water or 5% TPGS, 5% PVP-K30 in 50 mM Citrate, pH 5. Animals had free access to food and water before and after dosing. Blood samples (approximately 0.25 mL each) were collected via a carotid artery catheter prior to dosing and at 0.25, 0.5, 1, 2, 4, 8, 12, 24, 48 and 72 hours post dose. Each blood sample was collected into a tube that was kept on wet ice and contained potassium EDTA as the anticoagulant. Plasma was separated and stored at approximately −70° C. until analysis.

[3] = Aqueous solubility study; assay type: physicochemical; conditions: ambient conditions, 24 hours
Experimental: The aqueous solubility of compound 9 and 9a were determined according to the following procedure. Solubility data was determined at ambient conditions by equilibrating the compound with water on a shaking bed for 24 hours, followed by centrifugation and separation of the saturated solutions. The pH value of each media was measured before centrifugation, and the saturated solutions were assayed by HPLC.

[4] = Rat IV pharmacokinetic study; assay type: in vivo, Sprague Dawley rats; conditions: male rat, after IV bolus 1 mg/kg compound 9; LLOQ 2.5 ng/mL
Experimental: as §1, §2, §3, §4
Male Sprague Dawley rats (n=3) were administered a single nominal IV bolus dose of 1 mg/kg of compound 9 via a jugular vein cannula. […] Animals had free access to food and water before and after dosing. Blood samples (approximately 0.25 mL each) were collected via a carotid artery catheter prior to dosing and at 5 min, 10 min, 0.25, 0.5, 1, 2, 4, 8, 12, 24 hours post dose. […]

[5] = Monkey oral pharmacokinetic study; assay type: in vivo, cynomolgus monkeys
Experimental: as §1, §2, §3, §4
Male or female cynomolgus monkeys (n=3 per dose group) were administered single nominal PO doses of 10, 40, 100, 300, 500, 750 and 1000 mg/kg of compound 9 by gavage. Compound 9 was formulated in 30% PEG400 and 10% TPGS in water or 5% TPGS, 5% PVP-K30 in 50 mM Citrate, pH 5. Animals were fasted overnight prior to dosing, and were fed two hours post dose. Water was available before and after dosing. […]

In the case of `Cc1cc(F)ccc1Oc1cc(C(F)(F)F)ccc1C(=O)Nc1ccn(COP(=O)(O)O)c(=O)c1` [crystalline Form B, (4-(2-(4-fluoro-2-methylphenoxy)-4-(trifluoromethyl)benzamido)-2-oxopyridin-1(2H)-yl)methyl dihydrogen phosphate], the “chemical and physical stability” value ([1]; 5° C./dry, 40° C./dry, 25° C. with RH up to 60%, 40° C. with RH up to 75%) is reported as “chemically and physically stable for at least one month” and the “chemical and physical stability” value ([1]; open dish 40° C., 40° C./RH up to 75%, 25° C./RH up to 60%, closed dish 5° C. with desiccator) is reported as “chemically and physically stable for at least three months”.
`Cc1cc(F)ccc1Oc1cc(C(F)(F)F)ccc1C(=O)Nc1cc[nH]c(=O)c1` [Compound 9a, 2-(4-fluoro-2-methylphenoxy)-N-(2-oxo-1,2-dihydropyridin-4-yl)-4-(trifluoromethyl)benzamide] gave a Cmax ([2]; Sprague-Dawley, compound 9 PO 100 mg/kg) of 1670 ± 1.9 ng/mL, a Cmax ([2]; compound 9 PO 1000 mg/kg) of 4540 ± 910 ng/mL and a Solubility ([3]; pH 1.2, crystalline) of less than 1 µg/mL. It also gave a Solubility ([3]; water, pH 6.0, crystalline) of less than 1 µg/mL.
For `Cc1cc(F)ccc1Oc1cc(C(F)(F)F)ccc1C(=O)Nc1ccn(COP(=O)(O)O)c(=O)c1` [Compound 9, (4-(2-(4-fluoro-2-methylphenoxy)-4-(trifluoromethyl)benzamido)-2-oxopyridin-1(2H)-yl)methyl dihydrogen phosphate], the “plasma concentrations of compound 9” value [4] was “below LLOQ for the majority of the samples”, the “plasma concentrations of compound 9” value ([2]; rat, after PO compound 9 10-1000 mg/kg, LLOQ 2.5 to 25 ng/mL) was “below LLOQ for the majority of the samples” and the “in vivo conversion of prodrug to parent compound” value ([2]; rats) was “converted in vivo into compound 9a”. For the same compound, the “plasma concentrations of compound 9” value ([5]; monkey, after PO compound 9 10-1000 mg/kg, LLOQ 10.0 to 25.0 ng/mL) was “below LLOQ for the majority of the samples” and the “in vivo conversion of prodrug to parent compound” value ([5]; monkeys) was “converted in vivo into compound 9a”.
